Consider 2 compounds from patent publication US20110071117A1, “COMBINATIONS OF ANTIOXIDANTS AND ANTI-INFLAMMATORY DRUGS IN THE TREATMENT OF INFLAMMATORY BOWEL DISEASE” (The Board of Regents of the University of Oklahoma, priority 2008, published 2011).

In test [1] the test system is TNBS colitis. The test is described as follows: Macroscopic injury score of distal colon in TNBS colitis, rectal (enema) treatment. The format is in vivo, Male Sprague Dawley rats. The note with it: 11 days after TNBS, 8 days of daily rectal treatment, mean±SEM, scale of Table 1, TNBS alone 5.9±0.6. An excerpt: (§1) Male Sprague Dawley rats weighing 200-250 grams were housed in the animal facility in cages containing contact bedding. Rats were deprived of food but not water for 24 hrs prior to the induction of colitis. Institutional approval for experimental protocols was provided by the research and animal care committees of the Research Services at the Oklahoma City Veterans Administration Medical Center.
(§2) Fasted animals were lightly anesthetized with isoflurane and then subjected to enema administration of TNBS and subsequently study drugs. The experimental protocol is similar to that previously described (20). The tip of polyethylene catheter was advanced transanally 8 cm to the distal colon and a single dose of TNBS (Sigma, St. Louis, Mo.), was instilled intraluminally (15 mg of TNBS dissolved in a 0.6 ml volume of 50% ethanol) to induce colitis. Following the administration of TNBS the animals were maintained in a head-down position for approximately 60 seconds to prevent leakage of the infusate.
Three days after TNBS dosing rats were randomly assigned to receive one of the following treatments by enema in a manner similar to that used for TNBS administration. […]
Inflammation was present if the mucosa was erythematous. […] Once macroscopic damage was assessed full thickness colonic tissue samples were taken from inflamed areas and processed for histology.

Test [2] deals with TNBS colitis. In words: Microscopic (histological) injury of distal colon in TNBS colitis, rectal (enema) treatment. The test is classed as in vivo, Male Sprague Dawley rats.
From the text: as §1, §2
Three days after TNBS dosing rats were randomly assigned to receive one of the following treatments by enema in a manner similar to that used for TNBS administration. The TNBS treated animals received one of the following therapies 5-ASA (100 mg/kg) alone or 5-ASA in combination with one of the following: vitamin C (100 mg/kg), phenyl butylnitrone (PBN; 30 mg/kg) and vitamin E (a tocopherol; 50 mg/kg solubilized in DMSO). The doses of selected antioxidants were derived from the literature in which these agents had been used in experimental models of disease or IBD (19, 22, 23). Comparator groups included TNBS dosed rats that received 8 doses of rectal saline and saline treated controls. Rats were treated for 8 days and then sacrificed.
Histological assessment was used to measure colonic injury. Colonic tissue samples taken from the distal colon were immersed in 10% phosphate buffered formalin and subsequently embedded in paraffin. Sections of 3 micron thickness were stained with hematoxylin and eosin. The slides were then evaluated by a pathologist for epithelial damage, architectural changes, polymorphonuclear leukocyte (PMN) infiltration, mononuclear cell infiltration, and ulceration. The microscopic features of colitis were graded on a 0-3 scale with 0 being normal and 3 representing severe or most intense abnormality. In addition to scoring individual features of colitis, an aggregate score of colitis for each rat was tabulated by adding together individual parameter scores, thus, providing a global assessment of colitis.

The subject of test [3] is MPO activity. The test is described as follows: Colonic inflammation by MPO assay in distal colon tissue, TNBS colitis. The test is classed as in vivo, Male Sprague Dawley rats. The note with it: 11 days after TNBS, 8 days of treatment; mean±SEM; TNBS colitis 703+130. The text has this:
Fasted animals were lightly anesthetized with isoflurane and then subjected to enema administration of TNBS and subsequently study drugs. The experimental protocol is similar to that previously described (20). The tip of polyethylene catheter was advanced […] 8 cm to the distal colon and a single dose of TNBS (Sigma, St. […] Following the administration of TNBS the animals were maintained in a head-down position for approximately 60 seconds to prevent leakage of the infusate. Three days after TNBS dosing rats were randomly assigned to receive one of the following treatments by enema in a manner similar to that used for TNBS administration. The TNBS treated animals received one of the following therapies 5-ASA (100 mg/kg) alone or 5-ASA in combination with one of the following: vitamin C (100 mg/kg), phenyl butylnitrone (PBN; 30 mg/kg) and vitamin E (a tocopherol; 50 mg/kg solubilized in DMSO). The doses of selected antioxidants were derived from the literature in which these agents had been used in experimental models of disease or IBD (19, 22, 23). Comparator groups included TNBS dosed rats that received 8 doses of rectal saline and saline treated controls. Rats were treated for 8 days and then sacrificed. MPO activity was measured in colonic tissue samples by colorimetric assay. […] The absorbance changes were read at 450 nm and recorded. Results are expressed as nanograms per gram of tissue. […]

Test [4] relates to cytokine gene expression (IL-1A, IL-1B, 1L-04, IL-6 and TNFα). Conditions: similarly designed studies; cited from earlier work.
The mark [5] stands for this setting: distal colonic specimen, 8 days of topical treatment begun 3 days after TNBS.

For the compound `Nc1ccc(O)c(C(=O)O)c1` [5-ASA, 5-aminosalicylic acid], the macroscopic injury score in test [1] is 3.8±0.4. Further, in test [2] (distal colon, 11 days after TNBS, 8 days of daily rectal treatment, mean±SEM, sum of indices graded 0-3, TNBS alone 13.3±0.5), the “global microscopic injury score” value is reported as 9.1±1.0. In test [2] (setting [5]), the “inflammation in representative photomicrograph” value is listed as “mild inflammation in the submucosa” and the “mucosal ulceration in representative photomicrograph” value is listed as “an area of mucosal ulceration”. Further, the “reduction of global microscopic colitis vs TNBS” value in test [2] (printed as reduction/decrease) is reported as 31%. The “MPO activity in the distal colon” value in test [3] is reported as 354±81 ng/gm. Further, the “cytokine gene expression elicited by TNBS” value in test [4] is “did not achieve this degree of statistical distinction”.

As for `CC(=O)N[C@@H](CS)C(=O)O` [NAC, N-acetylcysteine], the “cytokine gene expression elicited by TNBS” value in test [4] is recorded as “did not achieve this degree of statistical distinction”.
